SMILES strings stand for the structures.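 Test compounds were applied to cells in 96-well plates for 48 hours at 5 doses. TGI denotes the concentration required for complete inhibition of growth.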

Some test systems named below: SNB-19 CNS; SR leukemia; OVCAR-5 ovarian; BT-549 breast; K-562 leukemia; NCI-H226 lung; NCI-H23 lung; UO-31 renal; HOP-92 NSCLC; OVCAR-4 ovarian.
Assay in all cases: NCI anticancer screen, dose series, 48 h

For the molecule `O=C1NC2O[C@H](CNC(=O)c3cc(Br)c[nH]3)CC2(O)N1` (mixture of isomers), the TGI in the assay on SNB-19 CNS, in the assay on SR leukemia, in the assay with OVCAR-5 ovarian, in the assay with BT-549 breast, with K-562 leukemia and in the assay with NCI-H226 lung was > 100 µM each time. For the same molecule, the TGI in the assay on NCI-H23 lung, with UO-31 renal, with HOP-92 NSCLC and in the assay with OVCAR-4 ovarian was > 100 µM throughout.

Consider `CCOC(=O)c1c(N2CCOCC2)[nH]c(=O)c(C(c2c(Cl)cccc2Cl)c2c(O)c(C(=O)OCC)c(N3CCOCC3)[nH]c2=O)c1O`, for which the TGI was determined as 21.1 µM in the assay on SNB-19 CNS; 15.9 µM with SR leukemia; 27.5 µM with OVCAR-5 ovarian; 19.6 µM with BT-549 breast; 6.55 µM with K-562 leukemia; 27.3 µM in the assay with NCI-H226 lung. Further, the TGI with NCI-H23 lung was determined as 21.8 µM; in the assay with UO-31 renal it was 6.37 µM; in the assay with HOP-92 NSCLC, 8.56 µM; with OVCAR-4 ovarian it was 24.1 µM.

Turning to `CCCCCCCCCCCC(=O)OCC(C[As](=O)(O)O)OC(=O)CCCCCCCCCCC` (stereo not given), the TGI in the assay with SNB-19 CNS was 9.38 µM; with SR leukemia, 51.4 µM; with OVCAR-5 ovarian it was 34.1 µM; with BT-549 breast, 23.3 µM; with K-562 leukemia it was > 38.9 µM; in the assay with NCI-H226 lung it was 42.9 µM. For the same molecule, the TGI in the assay on NCI-H23 lung stood at 18 µM; with UO-31 renal, 17.4 µM; in the assay on HOP-92 NSCLC it was 4.29 µM; with OVCAR-4 ovarian it was 33.3 µM.

As to `C[N+]1(C)CCc2cc(O)c(O)cc2C1Cc1ccc(O)c(O)c1` (stereo not given), the TGI is > 100 µM with SNB-19 CNS; 86.1 µM in the assay on SR leukemia; > 100 µM in the assay with OVCAR-5 ovarian; > 100 µM in the assay with BT-549 breast; > 100 µM with K-562 leukemia; > 100 µM with NCI-H226 lung. Also, the TGI in the assay on NCI-H23 lung was > 100 µM; in the assay on UO-31 renal, > 100 µM; with HOP-92 NSCLC, 63.7 µM; in the assay on OVCAR-4 ovarian it was 45.6 µM.

For the molecule `COc1cc2cc3c4cc(OC)c(OC)cc4cc[n+]3c(C)c2cc1OC` (tested in a mixture with another compound), the TGI in the assay on SNB-19 CNS is > 100 µM; in the assay on SR leukemia it was > 100 µM; in the assay with OVCAR-5 ovarian it was > 100 µM; with BT-549 breast it was > 100 µM; in the assay with K-562 leukemia it was > 100 µM; with NCI-H226 lung, > 45.6 µM. For the same molecule, the TGI in the assay with NCI-H23 lung, in the assay with UO-31 renal, in the assay with HOP-92 NSCLC and in the assay on OVCAR-4 ovarian was > 100 µM throughout.

Consider `CCOC(=O)c1cn2c(n1)sc1cc(Cl)ccc12`, for which the TGI was 83.2 µM in the assay with SNB-19 CNS; > 100 µM in the assay on SR leukemia; > 100 µM in the assay on OVCAR-5 ovarian; > 100 µM in the assay on BT-549 breast; > 100 µM with K-562 leukemia; > 100 µM with NCI-H226 lung. Moreover, the TGI in the assay on NCI-H23 lung, in the assay on UO-31 renal, in the assay on HOP-92 NSCLC and in the assay on OVCAR-4 ovarian was > 100 µM in each case.

Turning to `C(/C=C/Nc1ccc(Oc2ccccc2)cc1)=Nc1ccc(Oc2ccccc2)cc1`, the TGI in the assay on SNB-19 CNS was 31.3 µM; in the assay with SR leukemia, 39.7 µM; with OVCAR-5 ovarian it was 50.2 µM; with BT-549 breast it was 29.3 µM; with K-562 leukemia it was 55.9 µM; with NCI-H226 lung, > 100 µM. Further, the TGI in the assay on NCI-H23 lung worked out at 48.7 µM; in the assay with UO-31 renal it was 35 µM; in the assay with HOP-92 NSCLC it was 51.2 µM; in the assay on OVCAR-4 ovarian, 32.8 µM.

As to `CC1(C)C[C@@H]2C1CCC1(C)CC2(O)CC[C@H]1O` (stereo not given in full), the TGI with SNB-19 CNS, with SR leukemia, in the assay with OVCAR-5 ovarian, in the assay on BT-549 breast, with K-562 leukemia and in the assay with NCI-H226 lung was > 100 µM each time. The TGI in the assay with NCI-H23 lung, in the assay on UO-31 renal, in the assay with HOP-92 NSCLC and with OVCAR-4 ovarian was > 100 µM in each case.

Regarding `CO/C=C(/C(=O)OC)c1ccccc1COc1cccc(C(F)(F)F)c1`, the TGI was > 100 µM in the assay on SNB-19 CNS; > 100 µM in the assay with SR leukemia; > 100 µM with OVCAR-5 ovarian; > 100 µM with BT-549 breast; > 100 µM in the assay with K-562 leukemia; 71.2 µM in the assay with NCI-H226 lung. The TGI with NCI-H23 lung is > 100 µM; in the assay with UO-31 renal it was 77 µM; in the assay on HOP-92 NSCLC, 50.5 µM; in the assay on OVCAR-4 ovarian, > 100 µM.

For the molecule `COc1cc(-c2nc3ccccn3c2/N=C/c2cc(Br)cc(Br)c2O)ccc1O`, the TGI in the assay with SNB-19 CNS was 75.6 µM; with SR leukemia it was 62.7 µM; in the assay on OVCAR-5 ovarian it was > 100 µM; with BT-549 breast it was 53.3 µM; in the assay with K-562 leukemia it was > 100 µM; with NCI-H226 lung, 70.9 µM. The TGI was 67.9 µM in the assay on NCI-H23 lung, 30.6 µM in the assay with UO-31 renal, 50.8 µM in the assay on HOP-92 NSCLC and 61.3 µM with OVCAR-4 ovarian.

`CCCc1c(O)nc(Nc2nc3ccccc3[nH]2)[nH]c1=O`: the TGI in the assay with SNB-19 CNS, with SR leukemia, in the assay with OVCAR-5 ovarian, in the assay with BT-549 breast, with K-562 leukemia and in the assay on NCI-H226 lung was > 100 µM throughout. Moreover, the TGI in the assay with NCI-H23 lung, with UO-31 renal, with HOP-92 NSCLC and with OVCAR-4 ovarian was > 100 µM in each case.

Values taken from PubChem BioAssay (NCI).
